Assay results taken from ChEMBL document CHEMBL1201862, “PubChem BioAssay data set” (2004).
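Assay format: 96-well plates, 48-hour exposure. Here, GI50 denotes the concentration required for 50% inhibition of growth.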 Calls of active or inactive are those of the source. Cut-off read from the data, not from the text of the source: active = GI50 up to about 1.1 µM and inactive = higher.

Assays:
Experiment in all cases: growth of human tumour cells (NCI), 48 h
OVCAR-4 = test system: OVCAR-4
A549 = test system: A549
NCI-H23 = test system: NCI-H23
RPMI-8226 = test system: RPMI-8226
SF-295 = test system: SF-295
K562 = test system: K562
SK-MEL-2 = test system: SK-MEL-2
HL-60 = test system: HL-60
DLD-1 = test system: DLD-1
KM-20L2 = test system: KM-20L2
SNB-75 = test system: SNB-75
TK-10 = test system: TK-10
M14 = test system: M14
NCI-H460 = test system: NCI-H460
CAKI-1 = test system: CAKI-1
HOP-62 = test system: HOP-62
SW-620 = test system: SW-620
SNB-19 = test system: SNB-19
KM12 = test system: KM12
ACHN = test system: ACHN
M19-MEL = test system: M19-MEL
UO-31 = test system: UO-31
NCI-H226 = test system: NCI-H226
SNB-78 = test system: SNB-78
HT-29 = test system: HT-29
SK-MEL-28 = test system: SK-MEL-28
CCRF-CEM = test system: CCRF-CEM
OVCAR-8 = test system: OVCAR-8
OVCAR-3 = test system: OVCAR-3
DMS-273 = test system: DMS-273
U-251 = test system: U-251
MOLT-4 = test system: MOLT-4
RXF 631 = test system: RXF 631
SK-MEL-5 = test system: SK-MEL-5
HCT-15 = test system: HCT-15
SK-OV-3 = test system: SK-OV-3
HOP-92 = test system: HOP-92
NCI-H522 = test system: NCI-H522
UACC-62 = test system: UACC-62
786-0 = test system: 786-0
XF498 = test system: XF498
COLO 205 = test system: COLO 205
EKVX = test system: EKVX
HCC 2998 = test system: HCC 2998
SF-268 = test system: SF-268
DMS-114 = test system: DMS-114
LXFL 529 = test system: LXFL 529
UACC-257 = test system: UACC-257
SF-539 = test system: SF-539
SN12C = test system: SN12C
Malme-3M = test system: Malme-3M
OVCAR-5 = test system: OVCAR-5
A498 = test system: A498
HCT-116 = test system: HCT-116
IGROV-1 = test system: IGROV-1
HOP-18 = test system: HOP-18
SR = test system: SR
RXF 393 = test system: RXF 393
LOX IMVI = test system: LOX IMVI

In the case of `COc1cc(C(=O)C/C(CCC(=O)Nc2ccc(Cl)cc2Cl)=N/NC(=O)C(N)=O)ccc1O`, the GI50 (OVCAR-4) is reported as > 100 µM (inactive), the GI50 (A549) is reported as > 100 µM (inactive) and the GI50 (NCI-H23) is reported as > 100 µM (inactive). The GI50 (RPMI-8226) was > 100 µM (inactive), the GI50 (SF-295) was > 100 µM (inactive) and the GI50 (K562) was 76.2 µM (inactive). For the same molecule, the GI50 (SK-MEL-2) was > 100 µM (inactive), the GI50 (HL-60) was > 100 µM (inactive) and the GI50 (DLD-1) was > 100 µM (inactive). The GI50 (KM-20L2) was > 100 µM (inactive), the GI50 (SNB-75) was 7.91 µM (inactive) and the GI50 (TK-10) was > 100 µM (inactive). For the same molecule, the GI50 (M14) was > 100 µM (inactive), the GI50 (NCI-H460) was > 100 µM (inactive) and the GI50 (CAKI-1) was > 100 µM (inactive). The GI50 (HOP-62) was 79.6 µM (inactive), the GI50 (SW-620) was > 100 µM (inactive) and the GI50 (SNB-19) was > 100 µM (inactive). The GI50 (KM12) was 85.7 µM (inactive), the GI50 (ACHN) was > 100 µM (inactive) and the GI50 (M19-MEL) was > 100 µM (inactive). The GI50 (UO-31) was 72.9 µM (inactive), the GI50 (NCI-H226) was > 100 µM (inactive) and the GI50 (SNB-78) was > 100 µM (inactive). For the same molecule, the GI50 (HT-29) was > 100 µM (inactive), the GI50 (SK-MEL-28) was > 100 µM (inactive) and the GI50 (CCRF-CEM) was > 100 µM (inactive). The GI50 (OVCAR-8) was > 100 µM (inactive), the GI50 (OVCAR-3) was > 100 µM (inactive) and the GI50 (DMS-273) was > 100 µM (inactive). The GI50 (U-251) was > 100 µM (inactive), the GI50 (MOLT-4) was > 100 µM (inactive) and the GI50 (RXF 631) was > 100 µM (inactive). The GI50 (SK-MEL-5) was > 100 µM (inactive), the GI50 (HCT-15) was greater than 100 µM and the GI50 (SK-OV-3) was > 100 µM (inactive). For the same molecule, the GI50 (HOP-92) was > 100 µM (inactive), the GI50 (NCI-H522) was > 100 µM (inactive) and the GI50 (UACC-62) was 65.9 µM (inactive). For the same molecule, the GI50 (786-0) was > 100 µM (inactive), the GI50 (XF498) was > 100 µM (inactive) and the GI50 (COLO 205) was > 100 µM (inactive). For the same molecule, the GI50 (EKVX) was > 100 µM (inactive), the GI50 (HCC 2998) was > 100 µM (inactive) and the GI50 (SF-268) was > 100 µM (inactive). For the same molecule, the GI50 (DMS-114) was > 100 µM (inactive), the GI50 (LXFL 529) was > 100 µM (inactive) and the GI50 (UACC-257) was > 100 µM (inactive). For the same molecule, the GI50 (SF-539) was > 100 µM (inactive), the GI50 (SN12C) was > 100 µM (inactive) and the GI50 (Malme-3M) was > 100 µM (inactive). For the same molecule, the GI50 (OVCAR-5) was > 100 µM (inactive), the GI50 (A498) was > 100 µM (inactive) and the GI50 (HCT-116) was > 100 µM (inactive). The GI50 (IGROV-1) was > 100 µM (inactive) and the GI50 (HOP-18) was > 100 µM (inactive).
`O=C1C2C3C=C4c5ccccc5N(c5ccccc5)C4(C2C(=O)N1c1ccc(Cl)cc1)[C@H]1C(=O)N(c2ccc(Cl)cc2)C(=O)[C@@H]31` (stereo partly specified) was tested, and the GI50 (OVCAR-4) was > 100 µM (inactive), the GI50 (A549) was > 100 µM (inactive) and the GI50 (NCI-H23) was > 100 µM (inactive). The GI50 (RPMI-8226) was 22.2 µM (inactive), the GI50 (SF-295) was > 100 µM (inactive) and the GI50 (K562) was > 100 µM (inactive). The GI50 (SK-MEL-2) was > 100 µM (inactive), the GI50 (HL-60) was > 100 µM (inactive) and the GI50 (DLD-1) was > 100 µM (inactive). For the same molecule, the GI50 (KM-20L2) was > 100 µM (inactive), the GI50 (SNB-75) was > 100 µM (inactive) and the GI50 (SR) was > 100 µM (inactive). For the same molecule, the GI50 (TK-10) was > 100 µM (inactive), the GI50 (M14) was 35.7 µM (inactive) and the GI50 (NCI-H460) was > 100 µM (inactive). The GI50 (CAKI-1) was 14.7 µM (inactive), the GI50 (HOP-62) was > 100 µM (inactive) and the GI50 (SW-620) was > 100 µM (inactive). For the same molecule, the GI50 (SNB-19) was > 100 µM (inactive), the GI50 (KM12) was > 100 µM (inactive) and the GI50 (M19-MEL) was > 100 µM (inactive). For the same molecule, the GI50 (UO-31) was > 100 µM (inactive), the GI50 (NCI-H226) was > 100 µM (inactive) and the GI50 (SNB-78) was > 100 µM (inactive). For the same molecule, the GI50 (HT-29) was > 100 µM (inactive), the GI50 (CCRF-CEM) was > 100 µM (inactive) and the GI50 (OVCAR-8) was > 100 µM (inactive). For the same molecule, the GI50 (OVCAR-3) was > 100 µM (inactive), the GI50 (DMS-273) was > 100 µM (inactive) and the GI50 (U-251) was > 100 µM (inactive). For the same molecule, the GI50 (MOLT-4) was > 100 µM (inactive), the GI50 (RXF 631) was 6.49 µM (inactive) and the GI50 (SK-MEL-5) was > 100 µM (inactive). The GI50 (HCT-15) was greater than 100 µM, the GI50 (SK-OV-3) was > 100 µM (inactive) and the GI50 (RXF 393) was > 100 µM (inactive). The GI50 (HOP-92) was > 100 µM (inactive), the GI50 (NCI-H522) was 82.6 µM (inactive) and the GI50 (UACC-62) was > 100 µM (inactive). The GI50 (786-0) was > 100 µM (inactive), the GI50 (XF498) was > 100 µM (inactive) and the GI50 (COLO 205) was 64.7 µM (inactive). For the same molecule, the GI50 (EKVX) was > 100 µM (inactive), the GI50 (DMS-114) was > 100 µM (inactive) and the GI50 (LXFL 529) was > 100 µM (inactive). For the same molecule, the GI50 (UACC-257) was > 100 µM (inactive), the GI50 (SF-539) was > 100 µM (inactive) and the GI50 (SN12C) was > 100 µM (inactive). For the same molecule, the GI50 (Malme-3M) was > 100 µM (inactive), the GI50 (OVCAR-5) was > 100 µM (inactive) and the GI50 (A498) was > 100 µM (inactive). For the same molecule, the GI50 (HCT-116) was 78.3 µM (inactive), the GI50 (LOX IMVI) was > 100 µM (inactive) and the GI50 (IGROV-1) was > 100 µM (inactive). The GI50 (HOP-18) was > 100 µM (inactive).
